Measured values from patent US9187430B2, “Poly (ADP-ribose) polymerase inhibitor” (CHENGDU DI'AO PHARMACEUTICAL GROUP CO., LTD., priority 2011, dated 2015).
pIC50: −log10 of the molar value. ≈ marks a conversion by molar mass, not a printed value.

Test system: occlusion of the MCA in mice
Test: not given
Conditions: intracerebroventricular administration; cited from earlier work

Compound | decrease in infarct volume [%]
NC(=O)c1cccc(N)c1 [Compound 3-AB, 3-aminobenzamide] | 47

Test system: rat model of focal cerebral ischemia
Test: not given
Conditions: i.p. 10 mg/kg two hours prior to and two hours after the initiation of ischemia; cited from earlier work

Compound | reduction in infarct volume [%]
O=C1NCCc2c(OCCCCN3CCCCC3)cccc21 [DPQ, 3,4-dihydro-5-[4-(1-piperidinyl)butoxy]-1(2H)-isoquinolinone] | 54

Test system: triple-negative phenotypic breast cancer cell line MDA-MB-436
Test: Cell proliferation inhibition assay (SRB method)
Format: cell-based
Conditions: Homo sapiens, 144 h; BRCA-deficient MDA-MB-436, six days, compound alone
Description: Cell Proliferation Inhibition Assay
This assay was used to study the effect of PARP-1 inhibitor alone for tumor suppression. Breast cancer susceptibility genes BRCA1 and BRCA2 play an important role in homologous recombination DNA repair. BRCA-deficient cells represent homologous recombination repair defect, if PARP-mediated DNA repair is inhibited at the same time, DNA damage in cells may be increased, resulting in chromatin abnormality or even cell death.
BRCA-deficient breast cancer cell line MDA-MB-436 was selected for the assay, PARP inhibitor was used alone to evaluate its damage effect on cells. The inhibition effect of the compound was expressed by IC50.
Breast cancer cell line MDA-MB-436 in good growth condition seeded in 96-well plates (5000 cells/well or 3000 cells/well, respectively), and cultured overnight in an incubator at 37° C., 5% CO2 with saturated humidity. On the next day, samples with a series of concentration gradients were added and cultured for another six days. SRB method was used to detect the samples' inhibition on cell growth and calculate their growth inhibition rate.

Compound | pIC50
O=C(c1cc(Cc2n[nH]c(=O)c3ccccc23)ccc1F)N1CCN(C(=O)C2CC2)CC1 [AZD-2281, reference compound] | 5.36
C[C@@H](C(=O)N1CCN(C(=O)c2cc(Oc3n[nH]c(=O)c4ccccc34)ccc2F)CC1)c1ccccc1 [Compound 49, (R)-4-(4-fluoro-3-(4-(2-phenylpropionyl)piperazine-1-carbonyl)phenoxy)-2H-phthalazin-1-one] | 5.38
CCC(CC)C(=O)N1CCN(C(=O)c2cc(Oc3n[nH]c(=O)c4ccccc34)ccc2F)CC1 [Compound 61, 4-(3-(4-(2-ethylbutyryl)piperazine-1-carbonyl)-4-fluorophenoxy)-2H-phthalazin-1-one] | 5.70
O=C(c1cc(Oc2n[nH]c(=O)c3ccccc23)ccc1F)N1CCN(C(=O)N2CCCCC2)CC1 [Compound 85, 4-(4-fluoro-3-(4-(piperidine-1-carbonyl)piperazine-1-carbonyl)phenoxy)-2H-phthalazin-1-one] | 5.47
O=C(c1cc(Oc2n[nH]c(=O)c3ccccc23)ccc1F)N1CCN(C(=O)c2ccccc2[N+](=O)[O-])CC1 [Compound 88, 4-(4-fluoro-3-(4-(2-nitrobenzoyl)piperazine-1-carbonyl)phenoxy)-2H-phthalazin-1-one] | 5.48
CN(C)C1(C(=O)N2CCN(C(=O)c3cc(Oc4n[nH]c(=O)c5ccccc45)ccc3F)CC2)CC1 [Compound 124, 4-(3-(4-(1-(dimethylamino)cyclopropanecarbonyl)piperazine-1-carbonyl)-4-fluorophenoxy)2H-phthalazin-1-one] | 5.43

Further lines, results first:

pIC50 | Compound
5.58 | O=C(c1cc(Oc2n[nH]c(=O)c3ccccc23)ccc1F)N1CCN(C(=O)C2CCCCC2)CC1 [Compound 99]
5.39 | CCC(=O)N1CCN(C(=O)c2cc(Oc3n[nH]c(=O)c4ccccc34)ccc2F)CC1 [Compound 100, 4-(4-fluoro-3-(4-propionylpiperazine-1-carbonyl)phenoxy)2H-phthalazin-1-one]
5.50 | O=C(c1cc(Oc2n[nH]c(=O)c3ccccc23)ccc1F)N1CCN(C(=O)C2CCC(F)(F)CC2)CC1 [Compound 107, 4-(3-(4-(4,4-difluorocyclohexanecarbonyl)piperazine-1-carbonyl)-4-fluorophenoxy)2H-phthalazin-1-one]
5.41 | C[C@]1(C(=O)N2CCN(C(=O)c3cc(Oc4n[nH]c(=O)c5ccccc45)ccc3F)CC2)CCCN1 [Compound 130, (R)-4-(4-fluoro-3-(4-(2-methylpyrrolidine-2-carbonyl)piperazine-1-carbonyl)phenoxy)-2H-phthalazin-1-one]

Test system: not listed separately
Test: Solubility test (thermodynamic solubility, HPLC external standard)
Format: physicochemical
Conditions: aqueous buffer, thermodynamic from solid; pH=7.4 phosphate buffer, 25° C., shaken 24 hours; read-out: Water Solubility (PH = 7.4)
Method: In this test, excess amount of test sample was added into pH=7.4 phosphate buffer. Ultrasonic was performed for 30 min until the drug no longer dissolved. The solution was continuously shaked for 24 hours at a constant temperature of 25° C. to achieve a thermodynamic equilibrium of compound, and then the solution was filtrated to get filtrate. Quantitative analysis of compound in filtrate using external standard method is performed according to “Appendix VD High Performance Liquid Chromatography, Part II of Pharmacopeia 2010,” and the sample thermodynamic solubility in pH=7.4 phosphate buffered solution was determined.
Agilent 1200 LC, Phenomen C18 column (4.6 mm*150 mm, […]), mobile phase: methanol:water (60:40), flow rate: 1 mL/min, column temperature: 25° C., wave length: 230 nm, injection volume: 10 μL
About 30 mg test compound was put in a 10 mL volumetric flask, about 8 mL pH=7.4 phosphate buffer was added and ultrasonic was performed for 30 min, and the solution was shaked for 24 hours in a shaker at a constant temperature of 25° C. The solution was settled for half an hour under 25° C., filtered with […] hydrophilic filter. The filtrate was used as test sample.
Standard compound AZD-2281 was put in a volumetric flask and dissolved in the mobile phase. The solutions were injected to measure the peak area. The retention time of AZD-2281 was about 8.5 min. The peak area was regressed against concentration to get a regression equation y=29.66x+302.82 (r=0.9997), and the linear range is 52.45˜83.92 µg/mL (see FIG. 1).
The test solution was injected for three times according to the above chromatographic conditions. The peak area was measured to calculate the corresponding concentration.
The procedures for testing the solubility of other compounds were similar with compound AZD-2281.

Compound | solubility at 24 h [µg/mL]
O=C(c1cc(Cc2n[nH]c(=O)c3ccccc23)ccc1F)N1CCN(C(=O)C2CC2)CC1 [AZD-2281, reference compound] | 531 (≈ 1220 µM)
CC(C)(C)C(=O)N1CCN(C(=O)c2cc(Oc3n[nH]c(=O)c4ccccc34)ccc2F)CC1 [Compound 55, 4-(4-fluoro-3-(4-pivaloylpiperazine-1-carbonyl)phenoxy)-2H-phthalazin-1-one] | 602 (≈ 1330 µM)
CC(C)N1CCN(C(=O)c2cc(Oc3n[nH]c(=O)c4ccccc34)ccc2F)CC1 [Compound 79, 4-(4-fluoro-3-(4-isopropyl-1-carbonyl)phenoxy)-2H-phthalazin-1-one] | 650 (≈ 1580 µM)
CN(C)C1(C(=O)N2CCN(C(=O)c3cc(Oc4n[nH]c(=O)c5ccccc45)ccc3F)CC2)CC1 [Compound 124, 4-(3-(4-(1-(dimethylamino)cyclopropanecarbonyl)piperazine-1-carbonyl)-4-fluorophenoxy)2H-phthalazin-1-one] | 1440 (≈ 3000 µM)
CNC1(C(=O)N2CCN(C(=O)c3cc(Oc4n[nH]c(=O)c5ccccc45)ccc3F)CC2)CCC1 [Compound 127, 4-(4-fluoro-3-(4-(1-(methylamino)cyclobutanecarbonyl)piperazine-1-carbonyl)phenoxy)2H-phthalazin-1-one] | 630 (≈ 1310 µM)

Further lines, results first:

solubility at 24 h [µg/mL] | Compound
660 (≈ 1560 µM) | CCC(=O)N1CCN(C(=O)c2cc(Oc3n[nH]c(=O)c4ccccc34)ccc2F)CC1 [Compound 100, 4-(4-fluoro-3-(4-propionylpiperazine-1-carbonyl)phenoxy)2H-phthalazin-1-one]
671 (≈ 1490 µM) | NC1(C(=O)N2CCN(C(=O)c3cc(Oc4n[nH]c(=O)c5ccccc45)ccc3F)CC2)CC1 [Compound 125, 4-(3-(4-(1-aminocyclopropanecarbonyl)piperazine-1-carbonyl)-4-fluorophenoxy)2H-phthalazin-1-one]
